Measured values published in US10045530B2, “Agricultural pheromone compositions comprising positional isomers” (PROVIVI, INC., priority 2015, dated 2018).
Read-outs that look alike come from different tables or passages of the source.

Legend:
CYP153A P. sp. = details: cited from earlier work
CYP153A16 = details: cited from earlier work
alkB2 Gordonia sp TF6 = details: terminal hydroxylation; 100% relative activity obtained with hexane; cited from earlier work
AlkB P. putida GPo1 = biological target: T1, AlkB P. putida GPo1 (Ectopseudomonas oleovorans, UniProt P12691); details: terminal hydroxylation; by alkane/FA chain length; cited from earlier work
T1 sequence (P12691 1-401): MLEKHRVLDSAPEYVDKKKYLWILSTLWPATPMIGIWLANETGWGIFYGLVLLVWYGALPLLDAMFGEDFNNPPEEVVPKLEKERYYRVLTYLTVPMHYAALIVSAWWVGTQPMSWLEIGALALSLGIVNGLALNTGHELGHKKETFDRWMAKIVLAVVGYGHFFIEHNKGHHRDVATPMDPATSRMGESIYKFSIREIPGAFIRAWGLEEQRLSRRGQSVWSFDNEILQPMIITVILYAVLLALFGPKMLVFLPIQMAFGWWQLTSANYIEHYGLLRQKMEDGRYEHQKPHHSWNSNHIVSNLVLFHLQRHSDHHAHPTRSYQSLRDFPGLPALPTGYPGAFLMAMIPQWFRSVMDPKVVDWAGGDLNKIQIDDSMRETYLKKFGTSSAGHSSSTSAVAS

CYP153A6 = details: cited from earlier work
CYP52A21 = details: cited from earlier work
CYP52A3 = biological target: T2, CYP52A3 (Candida maltosa, UniProt P16496); details: terminal hydroxylation; by alkane/FA chain length; cited from earlier work
T2 sequence (P16496 2-523 limits assumed): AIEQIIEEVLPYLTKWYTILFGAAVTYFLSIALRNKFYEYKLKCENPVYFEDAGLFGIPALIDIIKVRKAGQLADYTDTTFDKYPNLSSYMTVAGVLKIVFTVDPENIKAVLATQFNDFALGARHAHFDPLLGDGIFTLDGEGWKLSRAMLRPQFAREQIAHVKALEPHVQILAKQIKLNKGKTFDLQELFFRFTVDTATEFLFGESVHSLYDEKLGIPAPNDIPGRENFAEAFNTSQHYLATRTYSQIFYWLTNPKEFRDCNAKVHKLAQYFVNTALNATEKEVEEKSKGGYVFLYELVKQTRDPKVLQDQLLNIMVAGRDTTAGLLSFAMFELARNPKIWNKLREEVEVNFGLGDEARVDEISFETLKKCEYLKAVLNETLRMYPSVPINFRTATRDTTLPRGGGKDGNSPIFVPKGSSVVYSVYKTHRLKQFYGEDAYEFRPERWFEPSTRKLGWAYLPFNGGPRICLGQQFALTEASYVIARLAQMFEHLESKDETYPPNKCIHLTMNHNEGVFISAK

CYP52A4 = biological target: T3, CYP52A4 (Candida maltosa, UniProt P16141); details: terminal hydroxylation; by alkane/FA chain length; cited from earlier work
T3 sequence (P16141 1-538): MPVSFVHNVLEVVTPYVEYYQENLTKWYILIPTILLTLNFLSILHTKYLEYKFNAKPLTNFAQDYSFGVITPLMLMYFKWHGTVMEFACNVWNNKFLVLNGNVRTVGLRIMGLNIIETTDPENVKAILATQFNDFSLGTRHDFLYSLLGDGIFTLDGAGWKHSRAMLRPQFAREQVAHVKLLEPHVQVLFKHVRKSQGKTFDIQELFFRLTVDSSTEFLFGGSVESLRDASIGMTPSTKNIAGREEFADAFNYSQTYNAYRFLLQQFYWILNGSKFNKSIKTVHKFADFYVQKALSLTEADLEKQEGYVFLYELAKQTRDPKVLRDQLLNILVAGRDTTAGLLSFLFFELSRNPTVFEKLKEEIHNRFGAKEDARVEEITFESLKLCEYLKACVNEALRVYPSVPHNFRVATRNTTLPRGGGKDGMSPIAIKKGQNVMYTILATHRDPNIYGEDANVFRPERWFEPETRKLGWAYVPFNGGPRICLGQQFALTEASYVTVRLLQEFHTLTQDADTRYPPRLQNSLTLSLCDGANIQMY

LadA = biological target: T4, LadA (Geobacillus thermodenitrificans, UniProt A4IU28); details: terminal hydroxylation; by alkane/FA chain length; cited from earlier work
T4 sequence (A4IU28 1-440): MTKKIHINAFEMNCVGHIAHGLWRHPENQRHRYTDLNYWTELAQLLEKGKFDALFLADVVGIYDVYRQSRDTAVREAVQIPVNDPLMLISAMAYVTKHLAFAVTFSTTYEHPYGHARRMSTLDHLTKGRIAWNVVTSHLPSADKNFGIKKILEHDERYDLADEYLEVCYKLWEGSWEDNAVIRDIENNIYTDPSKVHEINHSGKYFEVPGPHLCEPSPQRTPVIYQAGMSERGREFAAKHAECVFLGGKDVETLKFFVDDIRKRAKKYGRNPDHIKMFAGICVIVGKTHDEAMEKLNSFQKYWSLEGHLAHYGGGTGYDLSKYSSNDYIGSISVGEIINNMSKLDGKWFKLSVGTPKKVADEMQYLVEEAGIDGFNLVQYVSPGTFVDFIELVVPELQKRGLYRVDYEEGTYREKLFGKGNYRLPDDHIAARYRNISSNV

Helicoverpa zea = assay: Wind tunnel bioassay: upwind flight and lure location of male moths; format: in vivo; details: conclusions from 8.1-8.2
Protocol: Four separate experiments were conducted with the moth Helicoverpa zea and its respective pheromone components (Z-11-hexadecenal, Z-9-hexadecenal). Further, the addition of Z-5-hexadecenal, the positional isomer of the natural insect Z-11-hexadecenal pheromone, was also added to the Z-11 and Z-9 blends and tested. Upwind flight and lure location of male moths were compared for: natural ratios of pheromone (97% Z-11-hexadecenal with 3% of Z-9-hexadecenal) with and without addition of the Z-5-hexadecenal positional isomer at various ratios.
Moths (4-6 day-old males in second half of scotophase) were flown in a glass wind tunnel (120×30×30 cm). A fan pushed air into the wind tunnel at 0.4 m sec^−1 and a second fan exhausted air at a similar rate. To provide visual cues for navigation, the floor was covered with light colored construction paper on which small (2-5 cm) circles were drawn with marker (Experiment 1) or light colored circles that were cut from light colored construction paper were placed on the floor (Experiments 2-4). Lures were made with Soxhlet-extracted, grey-rubber septa from West. […]
A moth in a release cage was held on a platform 20 cm above the floor for 15 s in the plume of pheromone and then released by turning open end of the cage toward upwind. […] Flights were recorded on video and data were collected from videos. […]

[1] = terminal hydroxylation, by alkane/FA chain length

SMILES	Relative activity, alkB2 Gordonia sp TF6 (Fujii et al., 2004, Biosci. Biotechnol. Biochem. 68: 2171-2177) (alkB2 Gordonia sp TF6)	Relative activity, CYP52A3 (Scheller et al., 1996, Arch. Biochem Biophys. 328: 245-254) (CYP52A3)	Relative activity, CYP52A4 (Scheller et al., 1996, Arch. Biochem Biophys. 328: 245-254) (CYP52A4)	Relative activity, LadA (Feng et al., 2007, Proc. Natl. Acad. Sci. U.S.A. 104: 5602-5607) (LadA)	further results
CCCCCCCC [C8]	72%	–	–	–	Relative activity, CYP153A P. sp. (Scheps et al., 2011, Org. Biomol. Chem. 9: 6727-6733) (CYP153A P. sp.): 100; Relative activity, CYP153A16 (Scheps et al., 2011, Org. Biomol. Chem. 9: 6727-6733) (CYP153A16): 100; Relative activity, AlkB P. putida GPo1 (Vanbeilen et al., 1994, Enzyme Microb. Technol. 16: 904-911) (AlkB P. putida GPo1): 95; Relative activity, CYP153A6 (Funhoff et al., 2006, J. Bacteriol. 188: 5220-5227) (CYP153A6): 100
CCCCCCCCC [C9]	63%	–	–	–	Relative activity, CYP153A P. sp. (Scheps et al., 2011, Org. Biomol. Chem. 9: 6727-6733) (CYP153A P. sp.): 69; Relative activity, CYP153A16 (Scheps et al., 2011, Org. Biomol. Chem. 9: 6727-6733) (CYP153A16): 29; Relative activity, AlkB P. putida GPo1 (Vanbeilen et al., 1994, Enzyme Microb. Technol. 16: 904-911) (AlkB P. putida GPo1): 100; Relative activity, CYP153A6 (Funhoff et al., 2006, J. Bacteriol. 188: 5220-5227) (CYP153A6): 82
CCCCCCCCCC [C10]	66%	–	–	–	Relative activity, CYP153A P. sp. (Scheps et al., 2011, Org. Biomol. Chem. 9: 6727-6733) (CYP153A P. sp.): 60; Relative activity, CYP153A16 (Scheps et al., 2011, Org. Biomol. Chem. 9: 6727-6733) (CYP153A16): 13; Relative activity, AlkB P. putida GPo1 (Vanbeilen et al., 1994, Enzyme Microb. Technol. 16: 904-911) (AlkB P. putida GPo1): 60; Relative activity, CYP153A6 (Funhoff et al., 2006, J. Bacteriol. 188: 5220-5227) (CYP153A6): 23
CCCCCCCCCCC [C11]	48%	–	–	–	Relative activity, CYP153A P. sp. (Scheps et al., 2011, Org. Biomol. Chem. 9: 6727-6733) (CYP153A P. sp.): <6; Relative activity, CYP153A16 (Scheps et al., 2011, Org. Biomol. Chem. 9: 6727-6733) (CYP153A16): <8; Relative activity, AlkB P. putida GPo1 (Vanbeilen et al., 1994, Enzyme Microb. Technol. 16: 904-911) (AlkB P. putida GPo1): 6; Relative activity, CYP153A6 (Funhoff et al., 2006, J. Bacteriol. 188: 5220-5227) (CYP153A6): 1
CCCCCCCCCCCC(=O)O [C12 FA (lauric)]	–	20	100	–	Relative activity, CYP52A21 (Kim et al., 2007, Arch. Biochem. Biophys. 464: 213-220) (CYP52A21; [1]): 100
CCCCCCCCCCCC [C12]	34%	41	37	–	–
CCCCCCCCCCCCCC(=O)O [C14 FA (Myristic)]	–	–	–	–	Relative activity, CYP52A21 (Kim et al., 2007, Arch. Biochem. Biophys. 464: 213-220) (CYP52A21): 86
CCCCCCCCCCCCCCC [C15]	–	–	–	83	–
CCCCCCCCCCCCCCCC(=O)O [C16 FA (Palmetic)]	–	35	18	–	Relative activity, CYP52A21 (Kim et al., 2007, Arch. Biochem. Biophys. 464: 213-220) (CYP52A21; [1]): 29
CCCCCCCCCCCCCCCC [C16]	–	100	33	100	–
CCCCCCCCCCCCCCCCCC(=O)O [C18 FA (Stearic)]	–	30	1	–	–
CCCCCCCCCCCCCCCCCC [C18]	–	48	20	78	–
CCCCCCCCCCCCCCCCCCCCCC [C22]	–	–	–	74	–
CCCCCCCCCCCCCCCCCCCCCCCC [C24]	–	–	–	65	–
CCCCCCCCCC/C=C\CCCC=O [Z-5-hexadecedenal, Z-5-hexadecenal]	–	–	–	–	upwind flight response (Helicoverpa zea): triggers a similar upwind flight response
